Measured values as given in patent US7485434B2, “Method for screening compounds for those that modulate transducers of regulated CREB activity” (The Salk Institute for Biological Studies, priority 2005, dated 2009).

Assays:
TORC:14-3-3 complexes = test: Co-immunoprecipitation of TORC with endogenous 14-3-3 proteins; format: cell-based; details: basal and cAMP stimulated conditions; CsA 5 μM, OA 100 nM
Excerpt: FIGS. 5A-5D illustrate that 14-3-3 proteins associate with and repress TORC activity. Specifically, FIG. 5A, top panel, presents the results of a coimmunoprecipitation assay of Flag-TORC1 with endogenous 14-3-3 proteins in HEK293T cells. The effect of forskolin (F) treatment on the TORC 1: 14-3-3 association is shown. […] FIG. 5A, bottom left panel, is a Western blot assay of 14-3-3 proteins recovered from TORC or control 1 gG immunoprecipitates, illustrating the effect of forskolin treatment on endogenous TORC: 14-3-3 complexes in PC12 and HEK293T cells. Input levels of 14-3-3 and TORC proteins are shown. […] FIG. 5A, bottom right panel, illustrates the kinetics of TORC2 dissociation from endogenous 14-3-3 proteins in response to forskolin treatment of HEK293T cells. The levels of Flag-tagged TORC 2 (FLAG-T2) recovered from flag immunoprecipitates at each time point is shown below.
Rabbit pan-TORC (raised against 1-42 of human TORC1) and TORC2 selective rabbit polyclonal antiserum (raised against amino acids 454-607 of mouse TORC2) were generated as previously described (Conkright et al., 2003a)). Whole cell protein was extracted from cultured HEK293T, HIT, and MIN6 cells in Laemmli SDS sample buffer. Alternatively, whole cell protein was extracted from liver tissue or primary hepatocytes in SDS-urea-lysis buffer. […]

[1] = tested on: AMPK (AMP-activated protein kinase); test: In vitro kinase assay of GST-TORC2 (161-181) with purified AMPK; format: biochemical; details: 300 μM AMP
Excerpt: Specifically, FIG. 20A illustrates the relative phosphorylation of wild-type or Ser171 Ala mutant recombinant GST-TORC2 (161-181) compared to GST only or optimal AMPK peptide substrate (SAMS) by activated AMPK in vitro. Addition of AMP to reactions is shown. The relative incorporation of γ^32P-ATP by each substrate is indicated.
Recombinant GST-TORC2 (161 -181) wild-type and Ser171 Ala proteins were phosphorylated in vitro with 100 mU purified AMPK (AMP-activated protein kinase) (Upstate Biotech) ±300 μM AMP according to the manufacturer's instructions. Following 15 mm. incubation with γ-^32P-ATP, relative ^32P incorporation was measured by scintillation. GST substrates and SAMS peptide were used at 3 μM in each reaction.
By contrast with SIK, ATP depletion appears to be uniquely sensed by AMPK, the founding member of this family (see Sakamoto et al., 2004; Lizcano et al., 2004; Bananjee et al., 2004; and Radzuik et al., 2003). The presence of a consensus AMPK phosphorylation site (Ser171) that modulates TORC2 activity in liver prompted examination of whether AMPK inhibits gluconeogenesis via phosphorylation of TORC2 in response to ATP depletion. Activated AMPK phosphorylated wild-type, but not Ser171Ala mutant GST-TORC2 (161-181) peptide in vitro (see FIG. 20A).

TORC2 [2] = test: TORC2 localization, Ser171 phosphorylation and promoter recruitment in liver after IP injection; format: in vivo; details: mice; IP administration
CREB = CREB Ser133 phosphorylation in liver after IP injection (histochemical and Western blot); format: in vivo; details: mice; intraperitoneal administration
primary rat hepatocytes = test: Glucose output from primary rat hepatocytes; format: cell-based; details: FSK/DEX
Protocol: FIG. 17C summarizes the effect of TORC on glucose output from primary rat hepatocytes in response to fasting and feeding signals. Cells were infected with TORC1, TORC2, or control GFP adenovirus and then treated with FSK plus dexamethasone (FSK/DEX) for four hours. The effect of insulin on glucose output is shown.
Rat primary hepatocytes were prepared from 200-300g of Sprague-Dawley rats by collagenase perfusion method as described previously (see Koo et al., 2004). 1×10^6 cells were plated in 6 well plates with medium 199 (Invitrogen, Carlsbad, Calif.) supplemented by 10% FBS, 10 units/ml penicillin, 10 μg/ml streptomycin, and 10 nM dexamethasone for 3-6 hours. After attachment, cells were infected with adenoviruses for 16 hours. Subsequently, cells were maintained in medium 199 without FBS and dexamethasone for 24 hours (for cDNA expression adenoviruses) or 48 hours (for RNAi adenoviruses) and […] forskolin or 100 nM glucagon for 2 hours unless noted otherwise. For experiments with cycloheximide, 10 μg/ml cycloheximide was added 30 minutes prior to the addition of 100 nM glucagon.
The ability of TORC2 to modulate gluconeogenic gene expression in hepatocytes exposed to cAMP agonist is consistent with the proposal that this coactivator modulates glucose output from the liver in response to fasting signals.

[3] = tested on: CREB-dependent EVX-1 promoter; test: Transient transfection assay of HIT insulinoma cells with CREB-dependent EVX-1 luciferase reporter; format: cell-based, Hamster; details: for induction of CREB-dependent EVX-1 promoter: single stimulus (KCl 45 mM or forskolin), 6 hr
Protocol: Specifically, FIG. 1A summarizes the results of a transient transfection assay of HIT insulinoma cells transfected with the CREB-dependent EVX-1 luciferase reporter. Cells were treated with KCl (45 mM) and/or forskolin (10 nM) for six hours as indicated.
HEK293T, HIT or PC 12 cells were co-transfected with EVX or GAL4-LUC reporter plasmid, RSV-beta galactosidase and FLAG-TORC and/or SIK2 expression plasmids overnight using Lipofectamine 2000 (Invitrogen, Carlsbad, Calif.). DNA/lipid complexes were washed the next day and extracts prepared 24 h (293T and PC 12) or 40 hr (HITs) after transfection. […] Luciferase values were normalized to β-gal activity from co-transfected RSV-beta galactosidase activity in the corresponding sample.
Hamster insulinoma (HIT) cells were employed to test the relative effects of cAMP and calcium signals on CREB activity. Opening of voltage-sensitive L-type calcium channels in response to KC1 depolarization induced the CREB-dependent EVX-1 promoter (Conknight et al., 2003b) 5-fold in HIT cells, whereas addition of cAMP agonist stimulated the reporter 10-fold (see FIG. 1A). […] Consistent with the effects of calcium channel activity on the EVX-1 promoter, treatment with high glucose (20 mM) induced the expression of the endogenous CREB target gene NR4A2 5-fold in MIN6 insulinoma cells; and co-stimulation with glucose plus exendin-4, an analogue of the incretin hormone GLP-1, enhanced NR4A2 mRNA levels 35-fold (see FIG. 1B).

TORC2 [4] = test: EVX-1 reporter assay in HIT cells co-transfected with TORC2 expression vector; format: cell-based, Hamster
Protocol: Cells were treated with forskolin or KCl as indicated.

GAL4-CREB = GAL4-CREB transient GAL4 luciferase reporter assay in HIT cells; format: cell-based, Hamster
[5] = tested on: CREB:CBP complex (KID:KIX interaction); test: Mammalian two-hybrid assay GAL4-KID / KIX-VP16 in HIT cells; format: cell-based, Hamster
phospho (Ser133) CREB = test: Western blot of phospho (Ser133) CREB levels in HIT cells; format: cell-based, Hamster; details: forskolin 10 μM or KCl 45 mM
Protocol: FIG. 1C is a Western blot assay of phospho (Ser133) CREB levels in HIT cells following treatment with KCl (45 mM), forskolin (10 μM), or both together for 30 minutes.
FIG. 9 illustrates the time course (in minutes) of CREB Ser133 phosphorylation in HIT cells following treatment with forskolin (10 μM) or KCl (45 mM). […] Immunoreactive bands correspond to phospho (Ser133) CREB (top) and phospho (Ser63) ATF1 (bottom).
Western blot analyses were conducted on whole cell, cytoplasmic and nuclear extracts with the following rabbit polyclonal antisera: phospho (Ser133) specific affinity purified 5322 and phospho (Ser133) specific antibody from Rockland Immunochemicals, Gilbertsville, Pa.), non-discriminating CREB (244), phosphor (Ser171) CREB, TORC2, pan-TORC, SIK1 and SIK2. 14-3-3 and Hsp90 antibodies were from Santa Cruz (Santa Cruz, Calif.). FLAG-M2 (Sigma) and GAL4 (Santa Cruz) monoclonal antibodies were used at 1:2000 and 1:1000 dilutions, respectively. For quantitative western blotting, goat anti-mouse-800 nm fluorophore conjugate to detect FLAG-M2 was used at 1:40,000 dilution according to manufacturer's instructions (Licor) prior to analysis using the Odyssey detection system. GST-pulldowns were performed as described (Asahara et al., 2001). […]

SIK1 = SIK1 mRNA levels in primary rat hepatocytes; format: cell-based
Excerpt: FIG. 18F summarizes the effect of FSK treatment on SIK1 mRNA levels in primary rat hepatocytes. Cells were infected with control (GFP) or dominant negative A-CREB adenovirus as indicated.
Based on the ability of CHX to disrupt TORC2 Ser171 phosphorylation, it was hypothesized that glucagon induces the expression of an inhibitory kinase during the attenuation period. […] Indeed, fasting induced SIK1 mRNA and protein levels in liver 4-fold relative to feeding conditions, whereas expression of other SIK family members (SIK2 and SIK3) was unaffected (see FIGS. 18D and 18E).

Compound: C=C1[C@@H](O)[C@@H]2O[C@]3(CC[C@H](/C=C/[C@@H](C)[C@@H]4CC(C)=C[C@@]5(O[C@H](C[C@@](C)(O)C(=O)O)CC[C@H]5O)O4)O3)CC[C@H]2O[C@@H]1[C@@H](O)C[C@H](C)[C@H]1O[C@@]2(CCCCO2)CC[C@H]1C [okadaic acid]
- effect of phosphatase inhibitor on TORC:14-3-3 complex formation (TORC:14-3-3 complexes): had no effect on this interaction

Compound: Nc1ncnc2c1ncn2[C@@H]1O[C@H](COP(=O)(O)O)[C@@H](O)[C@H]1O [AMP]
- phosphorylation of TORC by AMPK [1]: induced

Compound: insulin
- TORC2 phosphorylation at Ser171 in liver (TORC2 [2]): highly phosphorylated at Ser171
- nuclear translocation of hepatic TORC2 (TORC2 [2]): did not stimulate nuclear entry of TORC2
- CREB Ser133 phosphorylation in liver (CREB): comparable effects on Ser133 phosphorylation
- effect on glucose output from TORC over-expressing cells (primary rat hepatocytes): disrupted

Compound: [Cl-].[K+] [KCl]
- induction of CREB-dependent EVX-1 promoter [3]: 5 fold
- further potentiation of EVX-1 reporter in TORC2 over-expressing cells (TORC2 [4]): 30 fold
- induction of GAL4 reporter activity via GAL4-CREB (GAL4-CREB; added individually): 2 fold
- response of truncated GAL4-CREBΔbZIP polypeptide (GAL4-CREB; lacking bZIP domain (aa. 284-341)): no induction
- effect on KID:KIX interaction ([5]; KCl depolarization alone): had no effect
- levels of CREB Ser133 phosphorylation (phospho (Ser133) CREB): increased levels of CREB Ser133 phosphorylation

Compound: C=C[C@@]1(C)CC(=O)[C@]2(O)[C@@]3(C)[C@@H](O)CCC(C)(C)[C@@H]3[C@H](O)[C@H](OC(C)=O)[C@@]2(C)O1 [forskolin, Forskolin]
- stimulation of CREB activity (EVX-1 reporter) ([3]; co-stimulation with both forskolin and KCl): 80 fold
- induction of CREB-dependent EVX-1 promoter [3]: 10 fold
- further potentiation of EVX-1 reporter in TORC2 over-expressing cells (TORC2 [4]): 25 fold
- induction of GAL4 reporter activity via GAL4-CREB (GAL4-CREB; KCl and forskolin in combination): 22 fold
- induction of GAL4 reporter activity via GAL4-CREB (GAL4-CREB; added individually): 5 fold
- stimulation of KID:KIX interaction (GAL4 luciferase reporter) ([5]; 6 hours): 20 fold
- induction of SIK1 mRNA levels (SIK1): 20 fold
